Measured values from patent EP0240907A2, “Use of trans-4-[(2-amino-3,5-dibromobenzyl)amino]cyclohexanol” (priority 1986, dated 1987).
Where a name gives a salt, the structure may show the parent alone.

Experiments:
physchem = type: physicochemical; details: water
Description: Bei Anwendung von Ambroxol muß die Dosis 50 bis 100 mg betragen. Berücksichtigt man, daß Ambroxol nur in 1 %iger Lösung stabil ist und alle konzentrierteren Lösungen bei […] Temperaturen zur […], so zeigt dies, […] in der Praxis in einer Dosis von 5 bis 10 ml zur Anwendung kommen müßte, die völlig unrealistisch ist.

[1] = tested on: tracheobronchiales oder sinubronchiales Syndrom; details: inhalate in 1 %iger Emser Sole; patients who also had rhinitis needed additional cold remedies; cited from earlier work
Kaninchenauge = details: 1%-ige Ambroxol-HCL-Lösung; cited from earlier work

Structure (SMILES)	solubility (physchem) [µg/mL]	Wirksamkeit bei Patienten mit tracheobronchialem oder sinubronchialem Syndrom [1]	Reizung des Kaninchenauges (Kaninchenauge)
Nc1c(Br)cc(Br)cc1CN[C@H]1CC[C@H](O)CC1 [Ambroxol, trans-4-[(2-Amino-3,5-dibrom-benzyl)-amino]cyclohexanol]	≤ 10000	wirksam	–
Nc1c(Br)cc(Br)cc1CN[C@H]1CC[C@H](O)CC1 [Ambroxol-HCL]	–	–	keine Reizung
